Two compounds from ChEMBL document CHEMBL1146184, “Drug self-association modulates the cellular bioavailability of DNA minor groove-directed terbenzimidazoles” (J Med Chem, 2006) can be followed below.

Common to all, as to assay type: ADME, cell-based
Data set [1] relates to RPMI 8402. The experiment in a line: Uptake in human RPMI8402 cells at 1 uM after 0.5 hrs. The following applies: rpmi 8402, 0.5 h.
In data set [2] the test system is RPMI 8402. Briefly: Uptake in human RPMI8402 cells at 1 uM after 4 hrs. As to conditions: rpmi 8402, 4 h.
Data set [3] relates to RPMI 8402. Briefly: Uptake in human RPMI8402 cells at 1 uM after 1 hr. As to conditions: rpmi 8402, 1 h.
Data set [4] relates to RPMI 8402. Briefly: Uptake in human RPMI8402 cells at 1 uM after 2 hrs. As to conditions: rpmi 8402, 2 h.

For the compound `c1ccc(-c2ccc3[nH]c(-c4ccc5[nH]c(-c6ccc7cc[nH]c7c6)nc5c4)nc3c2)cc1`, the Drug uptake is listed as 18% with RPMI 8402 [1] and 30% with RPMI 8402 [2].
`c1ccc(-c2ccc3[nH]c(-c4ccc5[nH]c(-c6ccc7[nH]cnc7c6)nc5c4)nc3c2)cc1`: the Drug uptake with RPMI 8402 [3], in the data set with RPMI 8402 [4], in the data set on RPMI 8402 [1] and with RPMI 8402 [2] was 3% in each case.
